From ChEMBL document CHEMBL5649166, “RIP3 induces apoptosis independent of pronecrotic kinase activity” (Mol Cell, 2014)

Tests used:
MEF = assay: Induction of apoptosis in RIP3-/- MEF cells transfected with human RIP3mutRHIM incubated for 18 hrs by Cell Titer-Glo luminescent cell viability assay; format: toxicity, cell-based; conditions: mouse
[1] = molecular target: T1, Serine/threonine-protein kinase Sgk3 (Homo sapiens) (UniProt Q96BR1); assay: Inhibition of human SGK3/SGKL using KGSGSGRPRTSSFAEG as substrate at 1 uM in presence of 32P-ATP by Hotspot assay relative to control; values are per cent of control
T1 sequence (whole entry): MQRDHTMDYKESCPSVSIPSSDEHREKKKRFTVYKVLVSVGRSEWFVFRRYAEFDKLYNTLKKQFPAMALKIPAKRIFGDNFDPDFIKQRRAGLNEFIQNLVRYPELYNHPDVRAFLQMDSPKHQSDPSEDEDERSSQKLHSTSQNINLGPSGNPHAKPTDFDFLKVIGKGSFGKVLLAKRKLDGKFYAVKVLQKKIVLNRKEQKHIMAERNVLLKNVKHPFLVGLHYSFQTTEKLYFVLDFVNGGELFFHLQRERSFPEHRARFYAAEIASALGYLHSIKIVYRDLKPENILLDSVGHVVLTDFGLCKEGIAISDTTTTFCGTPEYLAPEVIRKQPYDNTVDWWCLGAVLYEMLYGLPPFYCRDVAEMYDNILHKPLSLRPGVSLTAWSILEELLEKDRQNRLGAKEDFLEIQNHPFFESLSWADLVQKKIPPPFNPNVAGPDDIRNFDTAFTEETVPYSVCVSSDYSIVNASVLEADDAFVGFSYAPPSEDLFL

[2] = molecular target: T2, Ephrin type-B receptor 1 (Homo sapiens) (UniProt P54762); assay: Inhibition of human EPHB1 using poly[Glu:Tyr] (4:1) as substrate at 1 uM in presence of 32P-ATP by Hotspot assay relative to control; values are per cent of control
T2 sequence (whole entry): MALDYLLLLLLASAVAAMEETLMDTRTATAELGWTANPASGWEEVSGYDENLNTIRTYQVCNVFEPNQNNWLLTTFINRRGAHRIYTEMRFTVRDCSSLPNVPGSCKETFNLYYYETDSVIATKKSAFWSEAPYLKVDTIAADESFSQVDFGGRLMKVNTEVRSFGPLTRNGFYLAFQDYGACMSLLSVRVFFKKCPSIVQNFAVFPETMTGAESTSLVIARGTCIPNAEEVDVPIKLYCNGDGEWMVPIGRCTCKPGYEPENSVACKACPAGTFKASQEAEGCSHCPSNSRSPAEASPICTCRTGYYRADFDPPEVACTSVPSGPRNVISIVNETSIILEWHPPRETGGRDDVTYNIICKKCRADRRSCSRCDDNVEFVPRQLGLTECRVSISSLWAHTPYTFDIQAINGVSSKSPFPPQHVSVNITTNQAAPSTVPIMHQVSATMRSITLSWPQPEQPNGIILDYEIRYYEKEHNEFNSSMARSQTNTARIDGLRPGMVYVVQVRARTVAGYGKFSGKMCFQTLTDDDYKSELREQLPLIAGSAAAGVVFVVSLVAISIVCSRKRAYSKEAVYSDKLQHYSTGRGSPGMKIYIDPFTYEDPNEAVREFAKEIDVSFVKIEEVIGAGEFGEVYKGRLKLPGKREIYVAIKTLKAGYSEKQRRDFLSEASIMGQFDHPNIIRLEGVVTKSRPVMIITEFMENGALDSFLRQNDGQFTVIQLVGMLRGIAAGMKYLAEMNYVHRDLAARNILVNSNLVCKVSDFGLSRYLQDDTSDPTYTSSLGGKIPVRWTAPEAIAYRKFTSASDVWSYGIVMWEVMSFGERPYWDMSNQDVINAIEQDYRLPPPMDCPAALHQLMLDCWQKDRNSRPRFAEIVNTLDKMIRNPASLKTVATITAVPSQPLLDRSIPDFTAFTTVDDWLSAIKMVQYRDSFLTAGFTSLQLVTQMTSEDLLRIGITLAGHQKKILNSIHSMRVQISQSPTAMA

[3] = molecular target: Platelet-derived growth factor receptor alpha (Homo sapiens) (UniProt P16234); assay: Inhibition of human PDGFRa using poly[Glu:Tyr] (4:1) as substrate at 1 uM in presence of 32P-ATP by Hotspot assay relative to control; values are per cent of control
Platelet-derived growth factor receptor alpha (Homo sapiens), sequence (P16234 whole entry): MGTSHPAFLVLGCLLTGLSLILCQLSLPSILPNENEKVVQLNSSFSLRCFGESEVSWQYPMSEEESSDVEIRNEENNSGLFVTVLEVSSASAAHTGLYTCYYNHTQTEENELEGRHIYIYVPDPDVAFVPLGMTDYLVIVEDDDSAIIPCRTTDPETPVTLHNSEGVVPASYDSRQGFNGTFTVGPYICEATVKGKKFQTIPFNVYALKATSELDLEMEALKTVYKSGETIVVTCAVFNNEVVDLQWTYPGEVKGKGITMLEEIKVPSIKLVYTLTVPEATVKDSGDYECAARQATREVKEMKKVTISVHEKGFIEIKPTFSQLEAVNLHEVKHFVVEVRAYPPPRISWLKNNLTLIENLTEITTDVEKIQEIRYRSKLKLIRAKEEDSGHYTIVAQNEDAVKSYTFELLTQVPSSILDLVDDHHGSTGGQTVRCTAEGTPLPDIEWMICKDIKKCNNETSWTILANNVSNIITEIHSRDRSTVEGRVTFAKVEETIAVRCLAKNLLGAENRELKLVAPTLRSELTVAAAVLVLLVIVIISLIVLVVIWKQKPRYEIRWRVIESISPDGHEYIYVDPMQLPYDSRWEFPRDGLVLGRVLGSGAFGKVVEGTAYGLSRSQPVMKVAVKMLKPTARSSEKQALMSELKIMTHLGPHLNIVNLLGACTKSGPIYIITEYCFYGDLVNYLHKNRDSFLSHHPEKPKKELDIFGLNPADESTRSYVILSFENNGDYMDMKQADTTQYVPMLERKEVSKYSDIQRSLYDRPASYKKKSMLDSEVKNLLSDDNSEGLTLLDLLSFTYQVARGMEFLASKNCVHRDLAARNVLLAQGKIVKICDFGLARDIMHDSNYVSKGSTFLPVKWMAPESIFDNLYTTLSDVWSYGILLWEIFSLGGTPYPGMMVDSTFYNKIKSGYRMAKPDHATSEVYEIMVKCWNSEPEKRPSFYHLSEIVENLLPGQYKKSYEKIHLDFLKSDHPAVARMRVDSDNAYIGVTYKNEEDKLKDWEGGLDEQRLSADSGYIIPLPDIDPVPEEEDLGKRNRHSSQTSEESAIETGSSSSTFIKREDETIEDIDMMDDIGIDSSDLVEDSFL

[4] = molecular target: NT-3 growth factor receptor (Homo sapiens) (UniProt Q16288); assay: Inhibition of human TRKC using poly[Glu:Tyr] (4:1) as substrate at 1 uM in presence of 32P-ATP by Hotspot assay relative to control; values are per cent of control
NT-3 growth factor receptor (Homo sapiens), sequence (Q16288 32-839 limits assumed): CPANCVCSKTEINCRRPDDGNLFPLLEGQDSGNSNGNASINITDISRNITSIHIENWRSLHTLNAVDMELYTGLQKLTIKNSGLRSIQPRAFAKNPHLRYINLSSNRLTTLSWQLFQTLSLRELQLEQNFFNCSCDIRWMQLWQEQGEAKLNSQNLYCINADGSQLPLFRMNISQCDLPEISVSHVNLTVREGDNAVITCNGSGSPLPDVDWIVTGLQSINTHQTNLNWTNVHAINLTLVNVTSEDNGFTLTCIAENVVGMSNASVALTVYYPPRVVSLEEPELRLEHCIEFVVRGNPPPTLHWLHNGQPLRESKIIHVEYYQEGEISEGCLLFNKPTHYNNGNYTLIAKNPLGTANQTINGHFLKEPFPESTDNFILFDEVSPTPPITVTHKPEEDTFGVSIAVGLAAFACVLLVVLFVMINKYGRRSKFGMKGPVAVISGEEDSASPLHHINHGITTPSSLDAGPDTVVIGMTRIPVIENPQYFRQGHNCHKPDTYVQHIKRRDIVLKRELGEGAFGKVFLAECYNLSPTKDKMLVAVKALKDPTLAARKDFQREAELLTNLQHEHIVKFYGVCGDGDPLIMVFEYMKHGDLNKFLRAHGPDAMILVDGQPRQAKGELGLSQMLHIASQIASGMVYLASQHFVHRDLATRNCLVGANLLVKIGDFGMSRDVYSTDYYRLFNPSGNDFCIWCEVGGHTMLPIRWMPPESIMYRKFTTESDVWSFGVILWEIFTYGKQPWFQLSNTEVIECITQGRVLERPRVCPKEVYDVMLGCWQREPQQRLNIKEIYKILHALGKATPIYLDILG

[5] = molecular target: Mitogen-activated protein kinase kinase kinase 11 (Homo sapiens) (UniProt Q16584); assay: Inhibition of human MLK3/MAP3K11 using myelin basic protein as substrate at 1 uM in presence of 32P-ATP by Hotspot assay relative to control; values are per cent of control
Mitogen-activated protein kinase kinase kinase 11 (Homo sapiens), sequence (Q16584 whole entry, looked up): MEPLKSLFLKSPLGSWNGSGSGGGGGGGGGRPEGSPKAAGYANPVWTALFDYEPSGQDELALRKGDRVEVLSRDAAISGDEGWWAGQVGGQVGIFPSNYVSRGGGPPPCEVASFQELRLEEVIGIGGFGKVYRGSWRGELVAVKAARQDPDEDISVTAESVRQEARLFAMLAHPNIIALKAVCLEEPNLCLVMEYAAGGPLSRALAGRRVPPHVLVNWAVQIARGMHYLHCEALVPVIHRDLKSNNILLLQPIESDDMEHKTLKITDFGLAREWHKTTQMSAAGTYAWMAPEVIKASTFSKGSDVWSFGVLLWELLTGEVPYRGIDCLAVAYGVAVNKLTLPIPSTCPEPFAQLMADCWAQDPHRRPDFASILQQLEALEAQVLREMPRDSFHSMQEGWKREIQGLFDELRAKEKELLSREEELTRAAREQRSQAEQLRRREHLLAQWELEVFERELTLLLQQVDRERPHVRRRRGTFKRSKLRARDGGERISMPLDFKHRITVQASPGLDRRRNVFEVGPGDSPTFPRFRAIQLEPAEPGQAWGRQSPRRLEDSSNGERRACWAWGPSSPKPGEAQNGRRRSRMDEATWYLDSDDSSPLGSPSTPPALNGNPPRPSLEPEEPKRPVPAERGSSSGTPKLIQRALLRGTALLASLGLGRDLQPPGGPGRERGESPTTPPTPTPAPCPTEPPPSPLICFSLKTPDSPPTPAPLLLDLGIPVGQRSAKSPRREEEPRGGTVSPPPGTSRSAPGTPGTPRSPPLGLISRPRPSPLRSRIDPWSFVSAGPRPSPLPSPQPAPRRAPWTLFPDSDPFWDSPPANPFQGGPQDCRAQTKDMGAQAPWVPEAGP

[6] = molecular target: Serine/threonine-protein kinase PAK 4 (Homo sapiens) (UniProt O96013); assay: Inhibition of human PAK4 using RRRLSFAEPG as substrate at 1 uM in presence of 32P-ATP by Hotspot assay relative to control; values are per cent of control
Serine/threonine-protein kinase PAK 4 (Homo sapiens), sequence (O96013 whole entry, looked up): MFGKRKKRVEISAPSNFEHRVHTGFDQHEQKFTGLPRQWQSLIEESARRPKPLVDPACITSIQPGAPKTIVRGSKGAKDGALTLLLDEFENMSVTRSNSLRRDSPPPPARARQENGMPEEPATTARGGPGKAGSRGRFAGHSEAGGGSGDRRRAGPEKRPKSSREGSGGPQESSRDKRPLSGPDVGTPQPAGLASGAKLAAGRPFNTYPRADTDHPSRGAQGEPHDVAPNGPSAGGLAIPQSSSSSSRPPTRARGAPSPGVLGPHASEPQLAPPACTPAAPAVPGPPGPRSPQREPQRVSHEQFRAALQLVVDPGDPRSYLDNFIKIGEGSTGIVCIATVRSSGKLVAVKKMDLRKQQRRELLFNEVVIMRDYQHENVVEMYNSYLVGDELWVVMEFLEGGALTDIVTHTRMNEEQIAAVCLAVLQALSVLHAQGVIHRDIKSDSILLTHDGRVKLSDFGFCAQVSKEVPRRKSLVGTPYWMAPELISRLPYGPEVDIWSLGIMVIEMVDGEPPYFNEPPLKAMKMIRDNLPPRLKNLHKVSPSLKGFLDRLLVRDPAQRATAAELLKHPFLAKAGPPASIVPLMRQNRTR

[7] = molecular target: CDK6/cyclin D1 (Homo sapiens) (UniProt P24385+Q00534); assay: Inhibition of human CDK6/cyclin D1 using RB Protein as substrate at 1 uM in presence of 32P-ATP by Hotspot assay relative to control; values are per cent of control
[8] = molecular target: T3, Rhodopsin kinase GRK7 (Homo sapiens) (UniProt Q8WTQ7); assay: Inhibition of human GRK7 using casein as substrate at 1 uM in presence of 32P-ATP by Hotspot assay relative to control; values are per cent of control
T3 sequence (whole entry): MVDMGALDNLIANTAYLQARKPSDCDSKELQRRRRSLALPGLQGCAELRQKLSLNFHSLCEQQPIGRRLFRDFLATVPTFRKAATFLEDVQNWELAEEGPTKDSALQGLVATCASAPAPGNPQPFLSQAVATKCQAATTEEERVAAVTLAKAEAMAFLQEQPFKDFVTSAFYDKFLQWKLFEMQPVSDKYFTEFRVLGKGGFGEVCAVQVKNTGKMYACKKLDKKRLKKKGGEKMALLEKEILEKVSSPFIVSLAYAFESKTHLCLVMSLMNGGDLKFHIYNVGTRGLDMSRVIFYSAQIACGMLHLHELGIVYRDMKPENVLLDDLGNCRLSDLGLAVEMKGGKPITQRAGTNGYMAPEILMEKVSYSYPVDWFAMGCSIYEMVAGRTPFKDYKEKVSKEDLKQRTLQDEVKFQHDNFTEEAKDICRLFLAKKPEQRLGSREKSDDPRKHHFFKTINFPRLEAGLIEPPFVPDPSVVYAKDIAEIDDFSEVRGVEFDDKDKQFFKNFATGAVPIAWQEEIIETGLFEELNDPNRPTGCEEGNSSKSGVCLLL

Row | Compound | Activity (MEF) | residual activity [1] [%] | residual activity [2] [%] | residual activity [3] [%] | residual activity [4] [%] | residual activity [5] [%] | residual activity [6] [%] | residual activity [7] [%] | residual activity [8] [%]
1 | Cc1cc(-c2cnc(N)c3c(-c4ccc5scnc5c4)csc23)n(C)n1 | Non-Toxic | 97.9 | 36.8 | 9.84 | 95.3 | 69.5 | 100 | 98.2 | 100
2 | CNC(=O)c1ccc2c(c1)ncn2-c1ccc(CC(=O)OC(C)(C)C)cc1 | Non-Toxic | 96.7 | 104 | 32.7 | 98 | 85.4 | 99.6 | 96.6 | 92.4
3 | CC(C)S(=O)(=O)c1ccc2nccc(Nc3ccc4scnc4c3)c2c1 | Non-Toxic | 106 | 79 | 74.6 | 87.2 | 81.1 | 99 | 101 | 101
